# Test results taken from the supplement of paper PMC10307832.
# Assays:
# Test in all cases: relative viability (nuclei count vs DMSO), 5 days (fraction); higher = more cells survive
# [1] = compound: C=CC(=O)Nc1cc(-n2c(=O)ccc3cnc4ccc(-c5ccc(NS(C)(=O)=O)cc5)cc4c32)ccc1C [BMX-IN-1] + Nc1ncn([C@H]2C[C@H](O)[C@@H](CO)O2)c(=O)n1 [Decitabine] (partner 2 µM)
# How it was run: (§1)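 Relative viability is defined as nuclei in treated wells over nuclei in vehicle wells. Duplicate plates were run and medians reported. Lung cancer cell lines in 1536-well plates were dosed by pin tool one day after seeding, with one drug or with a fixed anchor-drug dose plus five library-drug doses (not always all listed) in √10 steps, and nuclei were counted after 5 days.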
# [2] = compound: C=CC(=O)N1CCC[C@@H](n2nc(-c3ccc(Oc4ccccc4)cc3)c3c(N)ncnc32)C1 [Ibrutinib] + CC(C)C[C@H](NC(=O)[C@H](Cc1ccccc1)NC(=O)c1cnccn1)B(O)O [Bortezomib] (partner 0.002 µM)
# How it was run: as §1
# [3] = compound: C=CC(=O)N1CCC[C@@H](n2nc(-c3ccc(Oc4ccccc4)cc3)c3c(N)ncnc32)C1 [Ibrutinib] + CS(=O)(=O)N1CCN(Cc2cc3nc(-c4cccc5[nH]ncc45)nc(N4CCOCC4)c3s2)CC1 [Pictilisib] (partner 1 µM)
# How it was run: as §1
# [4] = compound: C=CCc1cccc(/C=N/NC(=O)CN2CCN(Cc3ccccc3)CC2)c1O [PAC-1] + CS(=O)(=O)N1CCN(Cc2cc3nc(-c4cccc5[nH]ncc45)nc(N4CCOCC4)c3s2)CC1 [Pictilisib] (partner 1 µM)
# How it was run: as §1
Cell Line,relative viability ([1]; first compound 0.02 µM),relative viability ([1]; first compound 0.2 µM),relative viability ([1]; first compound 0.6325 µM),relative viability ([1]; first compound 2 µM),relative viability ([2]; first compound 0.005 µM),relative viability ([2]; first compound 0.01581 µM),relative viability ([2]; first compound 0.05 µM),relative viability ([2]; first compound 0.1581 µM),relative viability ([2]; first compound 0.5 µM),relative viability ([3]; first compound 0.005 µM),relative viability ([3]; first compound 0.01581 µM),relative viability ([3]; first compound 0.05 µM),relative viability ([3]; first compound 0.1581 µM),relative viability ([3]; first compound 0.5 µM),relative viability ([4]; first compound 0.02 µM),relative viability ([4]; first compound 0.06325 µM),relative viability ([4]; first compound 0.2 µM),relative viability ([4]; first compound 2 µM)
HARA,0.752,0.575,0.664,0.704,1.02,1.14,0.987,0.976,0.937,0.185,0.515,0.383,0.412,0.232,0.414,0.376,0.323,0.413
NCI-H1975,0.362,0.345,0.42,0.417,0.417,0.328,0.274,0.383,0.226,0.264,0.271,0.234,0.313,0.105,0.281,0.304,0.308,0.303
UMC-11,0.604,0.526,0.66,0.664,0.664,0.637,0.898,0.654,0.736,0.31,0.781,0.795,0.777,0.784,0.843,0.783,0.754,0.815
NCI-H2023,0.236,0.247,0.223,0.295,0.848,0.819,0.949,1.04,0.876,0.165,0.308,0.207,0.25,0.206,0.224,0.262,0.213,0.258
NCI-H23,0.326,0.295,0.338,0.296,0.839,1.02,0.938,1.07,1.13,0.319,0.458,0.562,0.391,0.395,0.365,0.461,0.414,0.473
LCLC-97TM1,0.259,0.224,0.208,0.264,0.447,0.851,0.385,0.153,0.732,0.114,0.203,0.263,0.156,0.18,–,0.206,0.178,0.231
NCI-H661,0.617,0.528,0.634,0.525,0.833,0.748,0.652,0.838,0.611,0.302,0.413,0.308,0.358,0.284,0.392,0.351,0.33,0.371
NCI-H1915,0.282,0.272,0.284,0.273,–,0.996,1,1.05,0.979,–,0.978,0.891,0.609,1.02,0.875,1.02,0.929,0.951
BEN,0.7,0.755,0.792,0.674,0.54,0.828,0.667,0.57,0.572,0.347,0.535,0.518,0.5,0.536,0.557,0.534,0.536,0.51
H3255,0.784,0.631,0.812,0.694,0.583,0.889,0.51,0.617,0.313,0.389,0.397,0.263,0.415,0.14,0.454,0.455,0.448,0.471
NCI-H1437,0.672,0.603,0.623,0.575,0.647,0.476,0.449,0.482,0.603,0.346,0.413,0.428,0.359,0.443,0.495,0.474,0.415,0.391
ChaGo-K-1,0.512,0.549,0.551,0.519,0.906,1.04,0.927,–,0.959,0.356,0.83,0.592,–,0.956,0.817,0.818,0.925,0.627
NCI-H1755,0.644,0.683,0.795,0.758,0.914,0.983,1.02,0.95,0.969,0.418,0.421,0.424,0.389,0.362,0.445,0.434,0.391,0.438
SK-LU-1,0.789,0.679,0.834,0.679,–,1.11,0.897,1.14,1.23,0.381,0.509,0.542,0.55,0.549,0.557,0.607,0.457,0.512
HOP-62,0.214,0.255,0.26,0.237,0.459,1,0.816,0.834,0.804,0.379,0.506,0.67,0.626,0.877,0.653,0.573,0.689,0.726
SW 1573,0.575,0.532,0.46,0.459,0.771,0.97,0.8,0.992,0.984,0.416,0.466,0.478,0.414,0.503,0.475,0.448,0.394,0.457
PC-14,0.18,0.227,0.292,0.305,0.891,0.878,0.835,0.819,0.744,0.72,0.621,0.558,0.88,0.101,0.667,0.681,0.623,0.677
EMC-BAC-2,0.95,0.993,1.1,1.03,1,1,0.997,1.05,1.01,0.43,0.521,0.604,0.525,0.522,0.549,0.536,0.566,0.555
